Where a name gives a salt, the structure may show the parent alone. Read-outs that look alike come from different tables or passages of the source.
Tests used:
[1] = tested on: mature (stage IV-V) Plasmodium falciparum gametocytes (NF54); experiment: In vitro activity against mature gametocytes (ATP production, BacTiterGlo); type: cell-based; conditions: 48 h
[2] = tested on: Plasmodium falciparum strain 3D7; experiment: Apicoplast as target: growth inhibition with and without IPP supplementation; type: cell-based; conditions: 3D7, 6 days
HepG2 cells = experiment: Cytotoxicity, neutral red assay; type: cell-based, human; conditions: for IC50: read-out: IC50 (μM) in HepG2 cells; for SI 3D7: selectivity index HepG2 versus P. falciparum 3D7; for SI A1-H.1: selectivity index HepG2 versus P. knowlesi A1-H.1
[3] = tested on: Plasmodium falciparum strain 3D7; experiment: Ionophoric activity assay: growth inhibition with KCl or MgCl2 supplementation; type: cell-based
[4] = tested on: Plasmodium falciparum Dd2 (multidrug-resistant); experiment: Growth inhibition assay, resistant strain Dd2; type: cell-based; conditions: read-out: IC50, Dd2
[5] = tested on: Plasmodium falciparum 7G8 (chloroquine resistant); experiment: Growth inhibition assay, resistant strain 7G8; type: cell-based; conditions: read-out: IC50, 7G8
[6] = tested on: Plasmodium falciparum strain 3D7; experiment: Growth inhibition assay with asexual Plasmodium falciparum (HRP2 ELISA); type: cell-based; conditions: for Fold differences, 3 day-assays: IC50 3D7 versus A1-H.1, 3 days; for Fold differences, 6 day-assays: IC50 3D7 versus A1-H.1, 6 days
Mycobacterium bovis = conditions: cited from earlier work
[7] = tested on: Plasmodium falciparum K1 (multidrug-resistant); experiment: Growth inhibition assay, resistant strain K1; type: cell-based; conditions: read-out: IC50, K1
[8] = tested on: Plasmodium falciparum 3D7 and Dd2 asexual stages; experiment: Thin blood smear microscopy (Giemsa); conditions: 1 nM for 6 h
Experimental: Then, thin blood smears were prepared, fixed in 100% methanol for 10 seconds, and stained with Giemsa (Merck) solution (5%) for 20 minutes. The slides were washed and observed under a Leica DMBL microscope, and pictures were taken using a ProgRes C10 camera and software (Jenoptik), at 100× magnification.

[9] = Plasmodium falciparum, 3D7, 72 h, read-out: IC50, 3 day-assays, 3D7
[10] = Plasmodium falciparum, 3D7, 144 h, read-out: IC50, 6 day-assays, 3D7
[11] = Plasmodium falciparum, 72 h, P. falciparum 3D7, 3 days of incubation, read-out: IC50, 3 day-assays, 3D7
[12] = Plasmodium falciparum, 144 h, P. falciparum 3D7, 6 days of incubation, read-out: IC50, 6 day-assays, 3D7
[13] = Plasmodium falciparum, NF54, stage IV and V gametocytes

CC(C)[C@@H](N)C(=O)O[C@H](C)[C@@H]1C/C=C\CC[C@H](O)C(C)(C)[C@@H]2CC[C@@H](C)[C@@]3(O2)O[B-]24O[C@@H](C(=O)O1)[C@]1(O[C@@H](CC[C@H]1C)C(C)(C)[C@H](O)CCC[C@@H]1C[C@H](OC(=O)[C@@H]3O2)[C@@H](C)O1)O4.[H+] [Boromycin]
IC50 ([1]; stage IV and V gametocytes): 0.0085 ± 0.0036 µM | IC50 ([2]; supplemented with IPP, read-out: IC50, IPP-supplemented): 0.0014 µM | IC50 ([2]; without IPP, read-out: IC50, control without IPP): 0.0009 µM | IC50 (HepG2 cells; HepG2, 24 hours drug incubation, neutral red): 1250 ± 230 µM | selectivity index (SI) (HepG2 cells; HepG2 versus Plasmodium): higher than 200,000 | SI 3D7 (HepG2 cells): 1,388,000 | SI A1-H.1 (HepG2 cells): 211,864 | IC50 ([3]; 3D7, 3 days, KCl 220 μg/ml, read-out: IC50, KCl supplemented): 2.1 ± 0.2 nM | IC50 ([3]; 3D7, 3 days, MgCl2 220 μg/ml, read-out: IC50, MgCl2 supplemented): 0.2 nM | IC50 ([3]; 3D7, 3 days, no supplementation, read-out: IC50 (in nM) control): 0.7 ± 0.1 nM | increase of IC50 by supplementation of KCl ([3]; KCl at 220 μg/mL versus control): 3 fold | IC50 ([4]; Dd2, 3 days of incubation): 0.0006 ± 0.0004 µM | IC50 ([5]; 7G8, 3 days of incubation): 0.0004 ± 7e-05 µM | IC50 ([6]; 3D7, 3 days of incubation, comparator for resistant strains, read-out: IC50, 3D7 (Table 4)): 0.0009 ± 0.0001 µM | Fold differences, 3 day-assays [6]: 0.15 | Fold differences, 6 day-assays [6]: 0.29 | IC50 ([6]; P. falciparum 3D7, 3 days of incubation, read-out: IC50, 3 day-assays, 3D7): 0.0009 ± 0.0001 µM | boromycin activity with external KCl (Mycobacterium bovis; KCl 20 mg/mL): 10% | boromycin activity without added KCl (Mycobacterium bovis; before addition of KCl): 50% | IC50 ([7]; K1, 3 days of incubation): 0.0007 ± 0.0001 µM | parasite morphology, strain 3D7 ([8]; 3D7): pyknotic appearance | parasite morphology, strain Dd2 ([8]; Dd2): pyknotic appearance

CCN(CC)CCCC(C)Nc1ccnc2cc(Cl)ccc12 (centres unmarked) [Chloroquine, Chloroquine diphosphate]
IC50 (HepG2 cells; Homo sapiens, HepG2, 24 h): 153 µM | SI 3D7 (HepG2 cells): 18,214 | SI A1-H.1 (HepG2 cells): 10,551 | increase of IC50 by supplementation of KCl [3]: no difference was observed | IC50 ([3]; Plasmodium falciparum, 3D7, 72 h, read-out: IC50 (in nM) control): 12 ± 0.8 nM | IC50 ([3]; Plasmodium falciparum, 3D7, 72 h, read-out: IC50, KCl supplemented): 11.6 ± 1.4 nM | IC50 ([3]; Plasmodium falciparum, 3D7, 72 h, read-out: IC50, MgCl2 supplemented): 2.2 nM | IC50 ([4]; Plasmodium falciparum, DD2, 72 h): 0.302 ± 0.119 µM | IC50 ([5]; Plasmodium falciparum, 7G8, 72 h): 0.304 ± 0.0182 µM | Fold differences, 3 day-assays [6]: 0.57 | Fold differences, 6 day-assays [6]: 0.61 | IC50 ([6]; Plasmodium falciparum, 3D7, 72 h, read-out: IC50, 3D7 (Table 4)): 0.0084 ± 0.0049 µM | IC50 [6, 9]: 0.0084 ± 0.0049 µM | IC50 [6, 10]: 0.0104 ± 0.0048 µM | IC50 ([7]; Plasmodium falciparum, K1, 72 h): 0.401 ± 0.0283 µM

CN(C)[C@@H]1C(O)=C(C(N)=O)C(=O)[C@@]2(O)C(O)=C3C(=O)c4c(O)ccc(Cl)c4[C@@](C)(O)[C@H]3C[C@@H]12 [Chlortetracycline]
IC50 [6, 11]: > 18 µM | IC50 [6, 12]: > 18 µM

CN(C)[C@@H]1C(O)=C(C(N)=O)C(=O)[C@@]2(O)C(O)=C3C(=O)c4c(O)ccc(Cl)c4[C@@H](O)[C@H]3C[C@@H]12 [Demeclocycline]
Fold differences, 6 day-assays [6]: 1.06 | IC50 [6, 11]: > 18 µM | IC50 [6, 12]: 0.41 ± 0.165 µM

C[C@H]1c2cccc(O)c2C(=O)C2=C(O)[C@]3(O)C(=O)C(C(N)=O)=C(O)[C@@H](N(C)C)[C@@H]3[C@@H](O)[C@@H]21 [Doxycycline, Doxycycline Hyclate]
Fold differences, 3 day-assays [6]: 5.1 | Fold differences, 6 day-assays [6]: 0.58 | IC50 [6, 11]: 9.58 ± 2.76 µM | IC50 [6, 12]: 0.386 ± 0.292 µM

CN(C)[C@@H]1C(O)=C(C(N)=O)C(=O)[C@@]2(O)C(O)=C3C(=O)c4c(O)c(NC(=O)CN5CCCC5)cc(F)c4C[C@H]3C[C@@H]12 [Eravacycline]
Fold differences, 3 day-assays [6]: 1.08 | Fold differences, 6 day-assays [6]: 0.4 | IC50 [6, 9]: 2.51 ± 0.55 µM | IC50 [6, 10]: 0.0051 µM

CO[C@@H]1[C@@H](O[C@@H]2O[C@H](C)[C@@H](O[C@H]3C[C@@](C)(O)[C@@H](OC(=O)CC(C)C)[C@H](C)O3)[C@H](N(C)C)[C@H]2O)[C@@H](CC=O)C[C@@H](C)[C@@H](O)/C=C/C=C/C[C@@H](C)OC(=O)C[C@H]1OC(C)=O [Josamycin]
Fold differences, 6 day-assays [6]: 2.3 | IC50 [6, 11]: > 18 µM | IC50 [6, 12]: 0.388 ± 0.185 µM

CN(C)[C@@H]1C(O)=C(C(=O)NCNCCCC[C@H](N)C(=O)O)C(=O)[C@@]2(O)C(O)=C3C(=O)c4c(O)cccc4[C@@](C)(O)[C@H]3C[C@@H]12 [Lymecycline]
Fold differences, 6 day-assays [6]: 1 | IC50 [6, 9]: > 18 µM | IC50 [6, 10]: 1.12 ± 0.247 µM

C=C1c2c(Cl)ccc(O)c2C(=O)C2=C(O)[C@]3(O)C(=O)C(C(N)=O)=C(O)[C@@H](N(C)C)[C@@H]3[C@@H](O)[C@H]12 [Meclocycline]
Fold differences, 6 day-assays [6]: 0.19 | IC50 [6, 9]: > 18 µM | IC50 [6, 10]: 0.292 ± 0.041 µM

C=C1c2cccc(O)c2C(=O)C2=C(O)[C@]3(O)C(=O)C(C(N)=O)=C(O)[C@@H](N(C)C)[C@@H]3[C@@H](O)[C@H]12 [Methacycline]
Fold differences, 6 day-assays [6]: 1.2 | IC50 [6, 11]: > 18 µM | IC50 [6, 12]: 3.72 µM

CN(C)c1ccc(O)c2c1C[C@H]1C[C@H]3[C@H](N(C)C)C(O)=C(C(N)=O)C(=O)[C@@]3(O)C(O)=C1C2=O [Minocycline, Minocycline hydrochloride]
Fold differences, 3 day-assays [6]: 3 | Fold differences, 6 day-assays [6]: 0.56 | IC50 [6, 11]: 9.39 ± 4.35 µM | IC50 [6, 12]: 0.0835 ± 0.025 µM

CO[C@H]1C[C@H](O[C@H]2[C@H](C)[C@@H](O[C@@H]3O[C@H](C)C[C@H](N(C)C)[C@H]3O)[C@@H](C)C[C@@]3(CO3)C(=O)[C@H](C)[C@@H](O)[C@@H](C)[C@@H](C)OC(=O)[C@@H]2C)O[C@@H](C)[C@@H]1O [Oleandomycin]
IC50 [6, 11]: 8.19 ± 3.85 µM | IC50 [6, 12]: > 18 µM

CN(C)c1cc(CNCC(C)(C)C)c(O)c2c1C[C@H]1C[C@H]3[C@H](N(C)C)C(O)=C(C(N)=O)C(=O)[C@@]3(O)C(O)=C1C2=O [Omadacycline]
Fold differences, 3 day-assays [6]: 7.3 | Fold differences, 6 day-assays [6]: 0.86 | IC50 [6, 11]: 8.44 ± 0.618 µM | IC50 [6, 12]: 0.248 ± 0.109 µM

CON(C)Cc1ccc(O)c2c1C[C@H]1C[C@H]3[C@H](N(C)C)C(O)=C(C(N)=O)C(=O)[C@@]3(O)C(O)=C1C2=O [Sarecycline, Sarecycline hydrochloride]
Fold differences, 3 day-assays [6]: 7.1 | Fold differences, 6 day-assays [6]: 0.26 | IC50 [6, 9]: 13.4 ± 1.05 µM | IC50 [6, 10]: 0.244 ± 0.136 µM

CO[C@H]1C[C@H](O[C@H]2[C@H](C)[C@@H](O[C@@H]3O[C@H](C)C[C@H](N(C)C)[C@H]3OC(C)=O)[C@@H](C)C[C@@]3(CO3)C(=O)[C@H](C)[C@@H](OC(C)=O)[C@@H](C)[C@@H](C)OC(=O)[C@@H]2C)O[C@@H](C)[C@@H]1OC(C)=O [Troleandomycin]
IC50 [6, 11]: > 18 µM | IC50 [6, 12]: > 18 µM

CC[C@H](C)[C@H](NC(=O)[C@H]([C@@H](C)CC)N(C)C(C)=O)C(=O)N[C@H](C(=O)N[C@@H](CC(C)C)C(=O)[C@@]1(C)CO1)[C@@H](C)O [epoxomicin]
IC50 [1, 13]: 0.0152 ± 0.0034 µM

CN(C)c1ccc2nc3ccc(=[N+](C)C)cc-3sc2c1 [methylene blue, Methylene Blue]
IC50 [1, 13]: 0.284 ± 0.035 µM

Reference: patent publication US20240277738A1, “GAMETOCYTOCIDAL COMPOUND” (Eberhard Karls Universität Tübingen Medizinische Fakultãt, priority 2021, published 2024)
